The text below walks through data of ChEMBL document CHEMBL3608256, “Strongylophorines, new protein tyrosine phosphatase 1B inhibitors, from the marine sponge Strongylophora strongilata collected at Iriomote Island” (Bioorg Med Chem Lett, 2015).

Some results are limits rather than exact numbers.

For the assay, the target named is T1, Tyrosine-protein phosphatase non-receptor type 1 (Homo sapiens, UniProt P18031).
T1 sequence (P18031 whole entry): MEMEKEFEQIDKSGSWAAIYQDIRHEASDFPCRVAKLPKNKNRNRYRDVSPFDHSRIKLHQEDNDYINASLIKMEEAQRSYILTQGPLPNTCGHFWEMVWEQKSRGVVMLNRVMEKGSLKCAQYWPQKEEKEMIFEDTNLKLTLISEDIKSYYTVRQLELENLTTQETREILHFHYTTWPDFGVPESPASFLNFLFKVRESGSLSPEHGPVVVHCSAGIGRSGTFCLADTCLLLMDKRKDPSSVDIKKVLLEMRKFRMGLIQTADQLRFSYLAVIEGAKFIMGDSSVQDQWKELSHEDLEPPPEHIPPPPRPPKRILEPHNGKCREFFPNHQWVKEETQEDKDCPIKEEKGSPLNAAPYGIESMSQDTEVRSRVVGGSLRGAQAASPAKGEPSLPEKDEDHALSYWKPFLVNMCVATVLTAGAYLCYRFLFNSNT
Nature of the assay: Inhibition of PTP1B (unknown origin) pre-incubated for 10 mins before addition of p-nitrophenyl phosphate substrate and measured 30 mins post substrate addition.
In turn, `CCO[C@H]1OC[C@]23CCC[C@]1(C)[C@@H]2CC[C@]1(C)[C@@H]3CC[C@](C)(O)[C@H]1Cc1cc(O)ccc1O` came in with an IC50 of 8.7 µM.
With `CO[C@H]1OC[C@]23CCC[C@]1(C)[C@@H]2CC[C@]1(C)[C@@H]3CC[C@]2(C)Oc3ccccc3C[C@@H]12` the figure was 8.5 µM; with `C[C@]12CCC[C@@]3(CO[C@@H]1O)[C@H]2CC[C@]1(C)[C@@H]3CC[C@]2(C)Oc3ccc(O)cc3C[C@@H]12`, 11.9 µM.
With `C[C@]1(CO)CCC[C@@]2(CO)[C@H]1CC[C@]1(C)[C@@H]2CC[C@]2(C)Oc3ccc(O)cc3C[C@@H]12` the figure was 14.8 µM; with `C[C@]12CCC[C@](C)(C(=O)O)[C@@H]1CC[C@]1(C)[C@@H]2CC[C@]2(C)Oc3ccc(O)cc3C[C@@H]12` [Strongylophorin-3], 9 µM; with `C[C@@]12CC[C@@H]3[C@]4(CCC[C@@]3(C)C(=O)OC4)[C@H]1CC[C@]1(C)Oc3ccc(O)cc3C[C@@H]21` [strongylophorine-2], greater than 24.4 µM.
Then `C[C@@]12CC[C@@H]3[C@]4(CCC[C@]3(C)C(=O)OC4)[C@H]1CC[C@](C)(O)[C@H]2Cc1cc(O)ccc1O` [strongylophorine-8], with 21.2 µM.

As usually defined, the IC50 is the concentration that inhibits the measured activity by half.
